The target in one assay is T1, TLR8 (Homo sapiens, UniProt Q9NR97).
T1 construct: host or cells: HEK-Blue cells (human HEK) co-expressing TLR8 and an NF-kB/AP1-inducible SEAP reporter
T1 sequence (Q9NR97 27-1041): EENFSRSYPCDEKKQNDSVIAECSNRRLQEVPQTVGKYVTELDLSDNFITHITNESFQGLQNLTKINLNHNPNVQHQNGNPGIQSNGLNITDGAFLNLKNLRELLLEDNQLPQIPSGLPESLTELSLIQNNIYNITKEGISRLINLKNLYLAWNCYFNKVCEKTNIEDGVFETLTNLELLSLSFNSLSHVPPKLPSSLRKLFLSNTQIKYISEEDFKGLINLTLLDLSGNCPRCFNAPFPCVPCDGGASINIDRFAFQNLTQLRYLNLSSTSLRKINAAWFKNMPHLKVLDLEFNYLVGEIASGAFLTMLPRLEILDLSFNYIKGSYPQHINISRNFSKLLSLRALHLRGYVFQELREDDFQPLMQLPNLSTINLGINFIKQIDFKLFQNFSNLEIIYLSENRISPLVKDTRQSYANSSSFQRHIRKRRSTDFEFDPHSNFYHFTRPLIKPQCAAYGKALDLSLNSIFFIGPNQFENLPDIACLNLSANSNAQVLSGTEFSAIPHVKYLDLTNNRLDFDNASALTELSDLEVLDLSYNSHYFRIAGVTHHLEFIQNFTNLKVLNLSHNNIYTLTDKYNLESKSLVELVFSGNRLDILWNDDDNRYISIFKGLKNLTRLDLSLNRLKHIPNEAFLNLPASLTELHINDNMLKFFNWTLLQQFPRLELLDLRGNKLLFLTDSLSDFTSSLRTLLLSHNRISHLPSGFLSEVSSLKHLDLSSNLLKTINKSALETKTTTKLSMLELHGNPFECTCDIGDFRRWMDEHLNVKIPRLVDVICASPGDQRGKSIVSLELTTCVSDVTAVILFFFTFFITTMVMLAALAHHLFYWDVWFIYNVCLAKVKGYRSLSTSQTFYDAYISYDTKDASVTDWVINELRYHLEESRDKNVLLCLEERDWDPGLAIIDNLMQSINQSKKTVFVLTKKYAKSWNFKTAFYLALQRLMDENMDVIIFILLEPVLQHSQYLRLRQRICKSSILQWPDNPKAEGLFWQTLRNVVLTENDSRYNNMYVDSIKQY
Put plainly: In vitro human TLR8 binding reporter assay (HEK-Blue, NF-kB/AP1-inducible SEAP). The assay is classed as cell-based. The method, boiled down:
(§1)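 Reporter cells are plated at 15,000 per well and rested 24 h. Next day, test compounds or DMSO are dispensed, followed by 18 h incubation at 37 °C, 5% CO2.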
(In general: In a reporter assay the amount or activity of a reporter protein is the signal.)

Another assay deals with T2, TLR7 (Homo sapiens, UniProt Q9NYK1).
T2 construct: host or cells: HEK-Blue cells (human HEK) co-expressing TLR7 and an NF-kB/AP1-inducible SEAP reporter
T2 sequence (Q9NYK1 27-1049): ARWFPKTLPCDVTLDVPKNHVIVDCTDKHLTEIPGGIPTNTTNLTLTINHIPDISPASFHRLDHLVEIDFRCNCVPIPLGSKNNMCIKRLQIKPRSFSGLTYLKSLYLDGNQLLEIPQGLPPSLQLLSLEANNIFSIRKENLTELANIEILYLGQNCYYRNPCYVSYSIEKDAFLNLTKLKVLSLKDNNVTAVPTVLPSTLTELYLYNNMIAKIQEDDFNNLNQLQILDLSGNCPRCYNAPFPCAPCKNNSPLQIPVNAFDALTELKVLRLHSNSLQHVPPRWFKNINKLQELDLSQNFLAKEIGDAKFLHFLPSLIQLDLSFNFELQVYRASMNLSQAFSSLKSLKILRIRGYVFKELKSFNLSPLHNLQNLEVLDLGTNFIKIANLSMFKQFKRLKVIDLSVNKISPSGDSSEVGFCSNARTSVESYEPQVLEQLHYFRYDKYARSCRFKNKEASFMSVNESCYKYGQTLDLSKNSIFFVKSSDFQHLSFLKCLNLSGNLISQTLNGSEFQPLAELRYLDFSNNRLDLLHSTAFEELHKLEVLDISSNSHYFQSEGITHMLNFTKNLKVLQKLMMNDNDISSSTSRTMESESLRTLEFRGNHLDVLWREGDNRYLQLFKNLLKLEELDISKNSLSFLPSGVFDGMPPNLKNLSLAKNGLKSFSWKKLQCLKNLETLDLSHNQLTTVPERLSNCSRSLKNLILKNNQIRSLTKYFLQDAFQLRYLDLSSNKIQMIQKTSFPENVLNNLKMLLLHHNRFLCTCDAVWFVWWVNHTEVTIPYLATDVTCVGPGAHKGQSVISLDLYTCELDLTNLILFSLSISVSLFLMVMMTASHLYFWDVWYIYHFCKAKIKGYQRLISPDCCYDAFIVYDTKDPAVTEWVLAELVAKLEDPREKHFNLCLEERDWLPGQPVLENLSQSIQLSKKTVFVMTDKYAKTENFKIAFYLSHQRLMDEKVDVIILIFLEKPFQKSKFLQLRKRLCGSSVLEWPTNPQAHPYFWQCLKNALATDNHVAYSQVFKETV
The assay can be described thus: In vitro human TLR7 binding reporter assay (HEK-Blue, NF-kB/AP1-inducible SEAP). It counts as cell-based. Conditions: activity range symbols. A digest of the protocol: as §1

Usually EC50 stands for the concentration needed to bring the measured effect to its halfway point. Higher therefore signals weaker potency.

Structures are written as SMILES. A value given as a limit tells only on which side of the number the result lay.

For `CCN(Cc1nc2c(N)nc3cc(-c4cc[nH]n4)ccc3c2[nH]1)S(=O)(=O)C(C)C` [Compound 459, N-{[4-amino-7-(1H-pyrazol-3-yl)-1H-imidazo[4,5-c]quinolin-2-yl]methyl}-N-ethylpropane-2-sulfonamide], the EC50 at TLR8 (activity range symbols) and on TLR7 was above 100 µM each time.
`CCCS(=O)(=O)N(CC)Cc1nc2c(N)nc3cc(-c4cc[nH]n4)ccc3c2[nH]1` [Compound 460, N-{[4-amino-7-(1H-pyrazol-3-yl)-1H-imidazo[4,5-c]quinolin-2-yl]methyl}-N-ethylpropane-1-sulfonamide]: the values for the EC50 at TLR8 (numeric bounds) and at TLR7 were above 62 µM and above 100 µM, respectively.
In the case of `CCNCc1nc2c(N)nc3cc(-c4ccn[nH]4)ccc3c2n1CCO` [Compound 462, 2-[4-Amino-2-[(ethylamino)methyl]-7-(1H-pyrazol-5-yl)-1H-imidazo[4,5-c]quinolin-1-yl]ethan-1-ol], the EC50 at TLR8 (activity range symbols) and on TLR7 was above 100 µM throughout.
For `CCn1c(CN2CCCC2=O)nc2c(N)nc3cc(-c4cccs4)ccc3c21` [Compound 463, 1-{[4-amino-1-ethyl-7-(thiophen-2-yl)-1H-imidazo[4,5-c]quinolin-2-yl]methyl}pyrrolidin-2-one], the EC50 at TLR8 (activity range symbols) and on TLR7 was above 100 µM each time.
As to `CCNCc1nc2c(N)nc3cc(-c4ccn[nH]4)ccc3c2n1CC` [Compound 464, 1-ethyl-2-[(ethylamino)methyl]-7-(1H-pyrazol-5-yl)-1H-imidazo[4,5-c]quinolin-4-amine], the EC50 on TLR8 (activity range symbols) and at TLR7 was above 100 µM throughout.
For `CCn1c(CN2CCCC2=O)nc2c(N)nc3cc(-n4cccn4)ccc3c21` [Compound 465, 1-{[4-amino-1-ethyl-7-(1H-pyrazol-1-yl)-1H-imidazo[4,5-c]quinolin-2-yl]methyl}pyrrolidin-2-one], the concentration giving a half-maximal response (EC50) at TLR8 (activity range symbols) and on TLR7 was above 100 µM in each case.
`CCn1c(CN2CCCC2=O)nc2c(N)nc3cc(-c4ccn[nH]4)ccc3c21` [Compound 466, 1-{[4-amino-1-ethyl-7-(1H-pyrazol-5-yl)-1H-imidazo[4,5-c]quinolin-2-yl]methyl}pyrrolidin-2-one]: the EC50 at TLR8 (activity range symbols) and at TLR7 was above 100 µM in each case.
Turning to `CCNCc1nc2c(N)nc3cc(-n4cccn4)ccc3c2n1CC` [Compound 467, 1-ethyl-2-((ethylamino)methyl)-7-(1H-pyrazol-1-yl)-1H-imidazo[4,5-c]quinolin-4-amine], the EC50 on TLR8 (activity range symbols) and on TLR7 was above 100 µM throughout.
On to `CCNCc1nc2c(N)nc3cc(-c4cccs4)ccc3c2n1CC` [Compound 468, 1-ethyl-2-[(ethylamino)methyl]-7-(thiophen-2-yl)-1H-imidazo[4,5-c]quinolin-4-amine], for which the EC50 at TLR8 (activity range symbols) and at TLR7 was above 100 µM in each case.
As to `Nc1nc2cc(-c3cccs3)ccc2c2c1nc(CN1CCCC1=O)n2CCO` [Compound 469, 1-{[4-amino-1-(2-hydroxyethyl)-7-(thiophen-2-yl)-1H-imidazo[4,5-c]quinolin-2-yl]methyl}pyrrolidin-2-one], the EC50 at TLR8 (activity range symbols) and on TLR7 was above 100 µM each time.
With `CCC(=O)N(CC)Cc1nc2c(N)nc3cc(-c4cccs4)ccc3c2n1CCO` [Compound 470, N-{[4-amino-1-(2-hydroxyethyl)-7-(thiophen-2-yl)-1H-imidazo[4,5-c]quinolin-2-yl]methyl}-N-ethylpropanamide], the EC50 at TLR8 (activity range symbols) and on TLR7 was above 100 µM each time.
For the molecule `CCNCc1nc2c(N)nc3cc(-c4cccs4)ccc3c2n1CCO` [Compound 471, 2-{4-amino-2-[(ethylamino)methyl]-7-(thiophen-2-yl)-1H-imidazo[4,5-c]quinolin-1-yl}ethan-1-ol], the EC50 on TLR8 (activity range symbols) and on TLR7 was above 100 µM throughout.
Regarding `CCN(Cc1nc2c(N)nc3cc(-c4cccs4)ccc3c2n1CC)C(C)=O` [Compound 472, N-{[4-amino-1-ethyl-7-(thiophen-2-yl)-1H-imidazo[4,5-c]quinolin-2-yl]methyl}-N-ethylacetamide], the EC50 at TLR8 (activity range symbols) and on TLR7 was above 100 µM each time.
As for `CCC(=O)N(CC)Cc1nc2c(N)nc3cc(-c4ccn[nH]4)ccc3c2n1CC` [Compound 473, N-{[4-amino-1-ethyl-7-(1H-pyrazol-5-yl)-1H-imidazo[4,5-c]quinolin-2-yl]methyl}-N-ethylpropanamide], the EC50 at TLR8 (activity range symbols) and on TLR7 was above 100 µM throughout.
For `CCN(Cc1nc2c(N)nc3cc(-c4ccn[nH]4)ccc3c2n1CC)C(C)=O` [Compound 474, N-{[4-amino-1-ethyl-7-(1H-pyrazol-5-yl)-1H-imidazo[4,5-c]quinolin-2-yl]methyl}-N-ethylacetamide], the half-maximal effective concentration (EC50) on TLR8 (activity range symbols) and at TLR7 was above 100 µM in each case.
For the molecule `CCC(=O)N(CC)Cc1nc2c(N)nc3cc(-c4ccn[nH]4)ccc3c2n1CCO` [Compound 475, N-{[4-amino-1-(2-hydroxyethyl)-7-(1H-pyrazol-5-yl)-1H-imidazo[4,5-c]quinolin-2-yl]methyl}-N-ethylpropanamide], the EC50 at TLR8 (activity range symbols) and on TLR7 was above 100 µM in each case.
In the case of `CCN(Cc1nc2c(N)nc3cc(-n4cccn4)ccc3c2n1CCO)C(C)=O` [Compound 476, N-{[4-amino-1-(2-hydroxyethyl)-7-(1H-pyrazol-1-yl)-1H-imidazo[4,5-c]quinolin-2-yl]methyl}-N-ethylacetamide], the EC50 at TLR8 (activity range symbols) and on TLR7 was above 100 µM in each case.
Turning to `CCNCc1nc2c(N)nc3cc(-n4cccn4)ccc3c2n1CCO` [Compound 477, 2-[4-amino-2-[(ethylamino)methyl]-7-(1H-pyrazol-1-yl)-1H-imidazo[4,5-c]quinolin-l-yl]ethan-1-ol], the EC50 at TLR8 (activity range symbols) and at TLR7 was above 100 µM in each case.
Take `CCC(=O)N(CC)Cc1nc2c(N)nc3cc(-n4cccn4)ccc3c2n1CCO` [Compound 478, N-{[4-amino-1-(2-hydroxyethyl)-7-(1H-pyrazol-1-yl)-1H-imidazo[4,5-c]quinolin-2-yl]methyl}-N-ethylpropanamide]: the EC50 on TLR8 (activity range symbols) and on TLR7 was above 100 µM each time.
For `CCN(Cc1nc2c(N)nc3cc(-n4cccn4)ccc3c2n1CC)C(C)=O` [Compound 479, N-{[4-amino-1-ethyl-7-(1H-pyrazol-1-yl)-1H-imidazo[4,5-c]quinolin-2-yl]methyl}-N-ethylacetamide], the concentration giving a half-maximal response (EC50) on TLR8 (activity range symbols) and on TLR7 was above 100 µM in each case.
Regarding `CCC(=O)N(CC)Cc1nc2c(N)nc3cc(-c4cccs4)ccc3c2n1CC` [Compound 480, N-{[4-amino-1-ethyl-7-(thiophen-2-yl)-1H-imidazo[4,5-c]quinolin-2-yl]methyl}-N-ethylpropanamide], the EC50 on TLR8 (activity range symbols) and at TLR7 was above 100 µM throughout.

Source of the values: patent US12351580B2, “NLRP3 modulators” (Innate Tumor Immunity, Inc., priority 2017, dated 2025).
